The results in this text go back to US11058690B2, “Use of cytochrome bc1 complex inhibitor in preparing pharmaceutical composition” (BEIJING WEILANZHIYUAN MEDICAL TECHNOLOGY CO., LTD., priority 2017, dated 2021).

For experiment [1], the system named is rat uterine smooth muscle. As to the kind of experiment: contraction of rat uterine smooth muscle induced by oxytocin. The format is cell-based. Particulars: oxytocin (1 mU/ml). Here is the method:
(§1) Female healthy Wistar rats weighing 230-270 g were used in the experiment. At 2 days before the experiment, Diethylstilbestrol suspension was injected intraperitoneally once at 0.1 mg/kg, resulting in artificial estrus. The rats were sacrificed by cervical dislocation, and the uterus was removed by laparotomy and immediately placed in a glass plate containing Tyrode's solution. […] The materials stood for 20-30 minutes, liquid was changed 2-3 times, then the uterus was given a load of 1 g and kept for 30-60 minutes until the uterus had regular contraction waves, 40 mM KCL solution was provided for 10 minutes, and the function of the uterine muscle strips was evaluated. Then the muscle strips were relaxed and washed 2-3 times with Tyrode's solution, then let stand for 30 minutes; after standing, the uterine muscle strips were given a load of 1 g and kept for 30-60 minutes, and the administration and the observation were carried out after the uterine muscle strips contracted stably (i.e. regular contraction waveforms appear in a microcomputer display screen), the changes of relevant data such as contraction tension, amplitude and area under the contraction curve of the uterine smooth muscle strips were recorded, and the drug given was evaluated. […]

Experiment [2] relates to SD rats. As to the kind of experiment: carrageenan-induced rat paw swelling test. The format is in vivo. As for the experimental part:
Eighteen healthy adult male mice were randomly divided into 3 groups. FAPM (100 mg/kg) was administered intraperitoneally once a day for 3 consecutive days. The control group was injected with the same amount of solvent, and the positive drug dexamethasone (4 mg/kg) was administered intragastrically once a day for 3 consecutive days. Thirty minutes after the last administration, 0.1 mL of 1% carrageenan was injected subcutaneously into the right hind paw of each rat, and the plantar thickness was measured before injection and 1, 2 and 3 hours after injection. Three hours later, the rats were sacrificed by dislocation. The feet were cut off from the knee joints and weighed on a precision balance. The swelling degree of the paw (right foot weight-left foot weight) was calculated.
Background: Carrageenan injected into the paw causes an acute inflammation.

The subject of experiment [3] is mice. As to the kind of experiment: xylene-induced mouse ear swelling test. The format is in vivo. Here is the method: Fifty healthy adult male mice were randomly divided into 5 groups. […] […] One hour after administration, 20 μL of xylene was evenly applied to both sides of the right ear of mouse, and xylene was not applied to the left ear as self control. One hour later, the two ears were cut off, and two ear pieces were removed from the same parts of the two ears with a 6 mm hole punch. The two ear pieces were weighed on a precision balance, and the swelling degree (right ear piece weight-left ear piece weight) and swelling inhibition rate (right ear piece weight-left ear piece weight)/left ear piece weight×100%) were calculated.

Experiment [4] has as its system rat uterine smooth muscle. Nature of the experiment: contraction of rat uterine smooth muscle induced by acetylcholine. Format: cell-based. Particulars: acetylcholine (0.25 μM). As for the experimental part:
as §1

For experiment [5], the system named is MLC20. Nature of the experiment: phosphorylation of MLC20 in rat uterine smooth muscle cells induced by PGF2α (Western blotting). Format: cell-based. Particulars: 5 μM and 10 μM pretreatment; PGF2α stimulation 5 minutes. From the text: A tissue mass culture method was adopted: rats treated with diethylstilbestrol were sacrificed through dislocation and soak in 75% alcohol for disinfection, open the abdominal cavity under an aseptic condition, separate the uterus, transfer it to a plate, cut open the uterus to remove the outer membrane of the uterus, gently scrape off the inner membrane of the uterus with a blade, gently peel off the outer membrane of the uterus with a tweezer, cut the intact smooth muscle into small pieces of less than 1×1×1 mm^3, uniformly stick them to the wall of a culture bottle, add a culture solution with the bottom up, gently turn over after culture at 5% CO2 and 37° C. for 3-4 hours, and soak in an RPMI-1640 culture solution (containing 20% calf bovine serum) for about one week until the cells can be connected into pieces to form monolayer cultured cells. At this time, the culture solution in the bottle was poured out, the tissue masses in the bottle were washed twice with PBS and removed, and a proper amount of 0.25% trypsin was added. Calf bovine serum was added to stop the reaction when most cells contracted and became round under microscope, the liquid was poured out, and the cells were washed twice with PBS and added with a proper amount of RPMI-1640, and the eluted cells were gently washed with a pipette to prepare a cell suspension for later use. […]
In general terms: Immunoblotting shows a protein as a band on a membrane.

The subject of experiment [6] is rat uterine smooth muscle. As to the kind of experiment: contraction of rat uterine smooth muscle induced by potassium chloride. The format is cell-based. The conditions noted are these: potassium chloride (16 mM). As for the experimental part: as §1

Broadly, the IC50 is the point on the concentration scale where inhibition reaches its midpoint. Higher therefore signals weaker potency.

Consider `CO/C=C(/C(=O)OC)c1ccccc1COc1cc(C(F)(F)F)nc(OC(C)C)n1` [FAPM, fluacrypyrim], for which the IC50 in experiment [1] turned out to be 1600 ± 80 nM; in experiment [4], 1360 ± 40 nM; in experiment [6] it was 1210 ± 70 nM. In experiment [2] (100 mg/Kg intraperitoneal once a day for 3 days, 1 h after carrageenan), the “Paw swelling thickness 1 h” value is recorded as 5.72 ± 0.29 mm. For the same molecule, in experiment [2] (100 mg/Kg intraperitoneal once a day for 3 days, 2 h after carrageenan), the “Paw swelling thickness 2 h” value is recorded as 5.92 ± 0.19 mm. Moreover, the “Paw swelling thickness 3 h” value in experiment [2] (100 mg/Kg intraperitoneal once a day for 3 days, 3 h after carrageenan) is 6.24 ± 0.20 mm. Besides, the “Paw swelling (right foot weight-left foot weight)” value in experiment [2] (100 mg/Kg intraperitoneal once a day for 3 days, 3 hours after carrageenan) was 0.834 ± 0.32 g. Further, the “carrageenan-induced rat paw swelling” value in experiment [2] (100 mg/kg intraperitoneal) is “significantly inhibited”. Further, the Ear swelling in experiment [3] (100 mg/Kg intraperitoneal, 1 hour after xylene) was 7.83 ± 3.85 mg. The “xylene-induced mouse ear swelling” value in experiment [3] (100 mg/kg intraperitoneal) is “significantly inhibited”. In experiment [5], the “phosphorylation of MLC20 (gray analysis, words)” value was “significantly inhibited”.
